From US10435405B2, “Pyrazolopyridine compounds and uses thereof” (Incyte Corporation, priority 2016, dated 2019)

Each compound was assayed against HPK1 (Homo sapiens (Human), UniProt Q92918) (assay: HPK1 Kinase Binding Assay).
Procedure, shortened: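 Active HPK1 (added as 4 nM solution) was combined with compound (3-fold, 11-point series) and tracer 222 (18 nM) plus Eu-anti-GST antibody (4 nM) in 50 mM HEPES pH 7.5 with MgCl2 and DTT. After 1 h at 25 °C plates were read. Ki values were derived.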

Chain of HPK1 (Q92918 1-346): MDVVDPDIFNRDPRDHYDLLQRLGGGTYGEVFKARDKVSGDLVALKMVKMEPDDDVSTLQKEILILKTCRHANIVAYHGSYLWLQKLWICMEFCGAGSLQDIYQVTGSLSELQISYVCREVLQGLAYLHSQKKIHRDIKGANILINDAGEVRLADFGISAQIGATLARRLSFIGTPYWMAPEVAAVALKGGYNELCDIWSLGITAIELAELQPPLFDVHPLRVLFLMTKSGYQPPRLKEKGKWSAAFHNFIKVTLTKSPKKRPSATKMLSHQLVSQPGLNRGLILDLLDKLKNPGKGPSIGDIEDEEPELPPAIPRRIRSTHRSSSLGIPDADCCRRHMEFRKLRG

Row | SMILES | Ki [µM]
1 | Cn1cc(-c2n[nH]c3cnc(-c4c(F)cc(CNCCO)cc4F)cc23)cn1 [Example 126, 2-(3,5-Difluoro-4-(3-(1-methyl-1H-pyrazol-4-yl)-1H-pyrazolo[3,4-c]pyridin-5-yl)benzylamino)ethanol] | ≤ 0.1
2 | CNCc1ccc(F)c(-c2cc3c(-c4cnn(C)c4)n[nH]c3cn2)c1F [Example 127, 1-(2,4-Difluoro-3-(3-(1-methyl-1H-pyrazol-4-yl)-1H-pyrazolo[3,4-c]pyridin-5-yl)phenyl)-N-methylmethanamine] | ≤ 0.1
3 | CC(C)NCc1ccc(F)c(-c2cc3c(-c4cnn(C)c4)n[nH]c3cn2)c1F [Example 128, N-(2,4-Difluoro-3-(3-(1-methyl-1H-pyrazol-4-yl)-1H-pyrazolo[3,4-c]pyridin-5-yl)benzyl)propan-2-amine] | ≤ 0.1
4 | Cn1cc(-c2n[nH]c3cnc(-c4c(F)ccc(CNC5CC5)c4F)cc23)cn1 [Example 129, N-(2,4-Difluoro-3-(3-(1-methyl-1H-pyrazol-4-yl)-1H-pyrazolo[3,4-c]pyridin-5-yl)benzyl)cyclo propanamine] | ≤ 0.1
5 | COC1CCCN(Cc2ccc(F)c(-c3cc4c(-c5cnn(C)c5)n[nH]c4cn3)c2F)C1 (stereo not drawn) [Example 130, 5-(2,6-Difluoro-3-((3-methoxypiperidin-1-yl)methyl)phenyl)-3-(1-methyl-1H-pyrazol-4-yl)-1H-pyrazolo[3,4-c]pyridine] | ≤ 0.1
6 | CNCc1cc(F)c(-c2cc3c(-c4cnn(C)c4)n[nH]c3cn2)c(C(F)(F)F)c1 [Example 131, 1-(3-Fluoro-4-(3-(1-methyl-1H-pyrazol-4-yl)-1H-pyrazolo[3,4-c]pyridin-5-yl)-5-(trifluoromethyl)phenyl)-N-methylmethanamine] | ≤ 0.1
7 | CNCc1cc(F)c(-c2cc3c(-c4ccc(N5CCN(C)CC5)cc4)n[nH]c3cn2)c(C(F)(F)F)c1 [Example 132, 1-(3-Fluoro-4-(3-(4-(4-methylpiperazin-1-yl)phenyl)-1H-pyrazolo[3,4-c]pyridin-5-yl)-5-(trifluoromethyl)phenyl)-N-methylmethanamine] | ≤ 0.1
8 | CCn1cc(-c2n[nH]c3cnc(-c4c(C)cc(CNC)cc4F)cc23)cn1 [Example 133, 1-(4-(3-(1-Ethyl-1H-pyrazol-4-yl)-1H-pyrazolo[3,4-c]pyridin-5-yl)-3-fluoro-5-methylphenyl)-N-methylmethanamine] | ≤ 0.1
9 | CNCc1cc(C)c(-c2cc3c(-c4cnn(C5CC5)c4)n[nH]c3cn2)c(F)c1 [Example 134, 1-(4-(3-(1-Cyclopropyl-1H-pyrazol-4-yl)-1H-pyrazolo[3,4-c]pyridin-5-yl)-3-fluoro-5-methylphenyl)-N-methylmethanamine] | ≤ 0.1
10 | CNCc1cc(C)c(-c2cc3c(-c4cnn(-c5ccccc5C#N)c4)n[nH]c3cn2)c(F)c1 [Example 135, 2-(4-(5-(2-Fluoro-6-methyl-4-((methylamino)methyl)phenyl)-1H-pyrazolo[3,4-c]pyridin-3-yl)-1H-pyrazol-1-yl)benzonitrile] | ≤ 0.1
11 | CNCc1cc(C)c(-c2cc3c(-c4cnn(C5CCOCC5)c4)n[nH]c3cn2)c(F)c1 [Example 136, 1-(3-Fluoro-5-methyl-4-(3-(1-(tetrahydro-2H-pyran-4-yl)-1H-pyrazol-4-yl)-1H-pyrazolo[3,4-c]pyridin-5-yl)phenyl)-N-methylmethanamine] | ≤ 0.1
12 | CNC1(c2cc(F)c(-c3cc4c(-c5cnn(C)c5)n[nH]c4cn3)c(F)c2)CC1 [Example 137, 1-(3,5-Difluoro-4-(3-(1-methyl-1H-pyrazol-4-yl)-1H-pyrazolo[3,4-c]pyridin-5-yl)phenyl)-N-methylcyclopropanamine] | ≤ 0.1
13 | CNCc1ccc(F)c(-c2cc3c(-c4cnn(C)c4)n[nH]c3cn2)c1OC [Example 138, 1-(4-Fluoro-2-methoxy-3-(3-(1-methyl-1H-pyrazol-4-yl)-1H-pyrazolo[3,4-c]pyridin-5-yl)phenyl)-N-methylmethanamine] | ≤ 0.1
14 | CCNCc1ccc(F)c(-c2cc3c(-c4cnn(C)c4)n[nH]c3cn2)c1OC [Example 139, N-(4-Fluoro-2-methoxy-3-(3-(1-methyl-1H-pyrazol-4-yl)-1H-pyrazolo[3,4-c]pyridin-5-yl)benzyl)ethanamine] | ≤ 0.1
15 | CC(C)NCc1cc(F)c(-c2cc3c(NC(=O)c4ccc(N5CCN(C)CC5)cc4)n[nH]c3cn2)c(F)c1 [Example 140, N-(5-(2,6-Difluoro-4-((isopropylamino)methyl)phenyl)-1H-pyrazolo[3,4-c]pyridin-3-yl)-4-(4-methylpiperazin-1-yl)benzamide] | ≤ 0.1
16 | CN1CCN(c2ccc(C(=O)Nc3n[nH]c4cnc(-c5c(F)cc(CN6CCCC6)cc5F)cc34)cc2)CC1 [Example 141, N-(5-(2,6-Difluoro-4-(pyrrolidin-1-ylmethyl)phenyl)-1H-pyrazolo[3,4-c]pyridin-3-yl)-4-(4-methylpiperazin-1-yl)benzamide] | ≤ 0.1
17 | CN1CCN(c2ccc(C(=O)Nc3n[nH]c4cnc(-c5c(F)cc(CN6CCC6)cc5F)cc34)cc2)CC1 [Example 142, N-(5-(4-(Azetidin-1-ylmethyl)-2,6-difluorophenyl)-1H-pyrazolo[3,4-c]pyridin-3-yl)-4-(4-methylpiperazin-1-yl)benzamide] | ≤ 0.1
18 | COC1CN(Cc2cc(F)c(-c3cc4c(NC(=O)c5ccc(N6CCN(C)CC6)cc5)n[nH]c4cn3)c(F)c2)C1 [Example 143, N-(5-(2,6-Difluoro-4-((3-methoxyazetidin-1-yl)methyl)phenyl)-1H-pyrazolo[3,4-c]pyridin-3-yl)-4-(4-methylpiperazin-1-yl)benzamide] | ≤ 0.1
19 | CNCc1cc(F)c(-c2cc3c(NC(=O)c4cnn(C)c4)n[nH]c3cn2)c(F)c1 [Example 144, N-(5-(2,6-Difluoro-4-((methylamino)methyl)phenyl)-1H-pyrazolo[3,4-c]pyridin-3-yl)-1-methyl-1H-pyrazole-4-carboxamide] | ≤ 0.1
20 | CNCc1cc(F)c(-c2cc3c(NC(=O)c4cccc(N5CCN(C)CC5)c4)n[nH]c3cn2)c(F)c1 [Example 145, N-(5-(2,6-Difluoro-4-((methylamino)methyl)phenyl)-1H-pyrazolo[3,4-c]pyridin-3-yl)-3-(4-methylpiperazin-1-yl)benzamide] | ≤ 0.1

More lines, now with the values ahead:

Row | Ki [µM] | SMILES
21 | ≤ 0.1 | CNCc1cc(C)c(-c2cc3c(-c4ccc(N5CCC(O)C5)nc4)n[nH]c3cn2)c(F)c1 (stereo not drawn) [Example 113, 1-(5-(5-(2-Fluoro-6-methyl-4-((methylamino)methyl)phenyl)-1H-pyrazolo[3,4-c]pyridin-3-yl)pyridin-2-yl)pyrrolidin-3-ol]
22 | ≤ 0.1 | CNCc1cc(C)c(-c2cc3c(-c4ccc(N5CCCC(OC)C5)nc4)n[nH]c3cn2)c(F)c1 (stereo not drawn) [Example 114, 1-(3-Fluoro-4-(3-(6-(3-methoxypiperidin-1-yl)pyridin-3-yl)-1H-pyrazolo[3,4-c]pyridin-5-yl)-5-methylphenyl)-N-methylmethanamine]
23 | ≤ 0.1 | COc1cccc(F)c1-c1cc2c(-c3cccc(C4CCN(C)CC4)n3)n[nH]c2cn1 [Example 115, 5-(2-Fluoro-6-methoxyphenyl)-3-(6-(1-methylpiperidin-4-yl)pyridin-2-yl)-1H-pyrazolo[3,4-c]pyridine]
24 | ≤ 0.1 | COc1cccc(F)c1-c1cc2c(/C=C/c3ccc(Br)cc3)n[nH]c2cn1 [Example 116, 3-(4-Bromostyryl)-5-(2-fluoro-6-methoxyphenyl)-1H-pyrazolo[3,4-c]pyridine]
25 | ≤ 0.1 | CNCc1cc(C)c(-c2cc3c(-c4cccc(N5CCOCC5)n4)n[nH]c3cn2)c(F)c1 [Example 117, 1-(3-Fluoro-5-methyl-4-(3-(6-morpholinopyridin-2-yl)-1H-pyrazolo[3,4-c]pyridin-5-yl)phenyl)-N-methylmethanamine]
26 | ≤ 0.1 | CCN(C)c1cccc(-c2n[nH]c3cnc(-c4c(C)cc(CNC)cc4F)cc23)n1 [Example 118, N-Ethyl-6-(5-(2-fluoro-6-methyl-4-((methylamino)methyl)phenyl)-1H-pyrazolo[3,4-c]pyridin-3-yl)-N-methylpyridin-2-amine]
27 | ≤ 0.1 | CNCc1cc(F)c(-c2cc3c(-c4ccc(N5CCN(C)CC5)nc4)n[nH]c3cn2)c(C(F)(F)F)c1 [Example 119, 1-(3-Fluoro-4-(3-(6-(4-methylpiperazin-1-yl)pyridin-3-yl)-1H-pyrazolo[3,4-c]pyridin-5-yl)-5-(trifluoromethyl)phenyl)-N-methylmethanamine]
28 | ≤ 0.1 | CNCc1cc(F)c(-c2cc3c(-c4ccc(C5CC5)nc4)n[nH]c3cn2)c(C(F)(F)F)c1 [Example 120, 1-(4-(3-(6-Cyclopropylpyridin-3-yl)-1H-pyrazolo[3,4-c]pyridin-5-yl)-3-fluoro-5-(trifluoromethyl)phenyl)-N-methylmethanamine]
29 | ≤ 0.1 | CNCc1cc(F)c(-c2cc3c(-c4ccc(N5CCOCC5)nc4)n[nH]c3cn2)c(C(F)(F)F)c1 [Example 121, 1-(3-Fluoro-4-(3-(6-morpholinopyridin-3-yl)-1H-pyrazolo[3,4-c]pyridin-5-yl)-5-(trifluoromethyl)phenyl)-N-methylmethanamine]
30 | ≤ 0.1 | CNCc1cc(F)c(-c2cc3c(-c4cnn(C)c4)n[nH]c3cn2)c(F)c1 [Example 122, 1-(3,5-Difluoro-4-(3-(1-methyl-1H-pyrazol-4-yl)-1H-pyrazolo[3,4-c]pyridin-5-yl)phenyl)-N-methylmethanamine]
31 | ≤ 0.1 | CC(C)NCc1cc(F)c(-c2cc3c(-c4cnn(C)c4)n[nH]c3cn2)c(F)c1 [Example 123, N-(3,5-Difluoro-4-(3-(1-methyl-1H-pyrazol-4-yl)-1H-pyrazolo[3,4-c]pyridin-5-yl)benzyl)propan-2-amine]
32 | ≤ 0.1 | Cn1cc(-c2n[nH]c3cnc(-c4c(F)cc(CNc5ccccn5)cc4F)cc23)cn1 [Example 124, N-(3,5-Difluoro-4-(3-(1-methyl-1H-pyrazol-4-yl)-1H-pyrazolo[3,4-c]pyridin-5-yl)benzyl)pyridin-2-amine]
33 | ≤ 0.1 | Cn1cc(-c2n[nH]c3cnc(-c4c(F)cc(CNc5ccn(C)n5)cc4F)cc23)cn1 [Example 125, N-(3,5-Difluoro-4-(3-(1-methyl-1H-pyrazol-4-yl)-1H-pyrazolo[3,4-c]pyridin-5-yl)benzyl)-1-methyl-1H-pyrazol-3-amine]
